In US20070293491A1, “INDAZOLE COMPOUNDS AND METHODS FOR INHIBITION OF CDC7” (NOVARTIS VACCINES AND DIAGNOSTICS, INC., priority 2006, published 2007):

Target: cdc7/dbf4 (Homo sapiens, UniProt O00311)
Test: In vitro assay of CDC7/DBF4 inhibition (phosphoserine 108-MCM-2 detection, donor/acceptor beads)
Type: biochemical
Settings: Test Concentration 0.93 μM; 0.5 μM ATP solution, MCM-2 substrate, 1 hr room temperature
Method: A 20.5 μL kinase reaction was performed on OptiPlate-384 plates PerkinElmer, 6007290) as follows by sequential addition of: 0.5 μL of test compounds of the invention in DMSO, 10 μL 0.5 μM ATP in reaction buffer, 10 μL 2.2 nM cdc7/dbf4 baculovirus derived), 4.4 nM MCM-2 in a reaction buffer. The reaction proceeded for 1 hr at room temperature on an orbital shaker. The reaction was terminated by addition of 10 μL detection buffer containing Streptavidin-coated donor beads and Protein A conjugated acceptor beads (54 μg/ml), and 1:4000 diluted rabbit antibody against phosphoserine 108-MCM-2 (Bethyl Labs). The mixture was incubated at room temperature for 4 hrs in the dark. The plate was then read on a PerkinElmer Fusion instrument. The reaction buffer contained 50 mM Hepes (pH 7.2-7.5), 10 mM MgCl2, 1 mM dithiothreitol (DTT), leupeptin (10 μg/ml), and bovine serum albumin (BSA) (0.2 mg/ml). The detection buffer contained 25 mM Tris (pH 7.5), 400 mM NaCl, 100mM EDTA, 0.3% BSA, and 0.05% Tween 20.
Representative compounds of the invention which inhibited the kinase reaction >70% in the above cdc7/db4 assay were selected for further analysis and confirmation. Test compounds were diluted in DMSO to a concentration of 0.93 μM or 1.39 μM and 0.5 μL of each test solution was added to wells for assay using the assay conditions and methods as described above.

cdc7/dbf4, sequence (O00311 whole entry): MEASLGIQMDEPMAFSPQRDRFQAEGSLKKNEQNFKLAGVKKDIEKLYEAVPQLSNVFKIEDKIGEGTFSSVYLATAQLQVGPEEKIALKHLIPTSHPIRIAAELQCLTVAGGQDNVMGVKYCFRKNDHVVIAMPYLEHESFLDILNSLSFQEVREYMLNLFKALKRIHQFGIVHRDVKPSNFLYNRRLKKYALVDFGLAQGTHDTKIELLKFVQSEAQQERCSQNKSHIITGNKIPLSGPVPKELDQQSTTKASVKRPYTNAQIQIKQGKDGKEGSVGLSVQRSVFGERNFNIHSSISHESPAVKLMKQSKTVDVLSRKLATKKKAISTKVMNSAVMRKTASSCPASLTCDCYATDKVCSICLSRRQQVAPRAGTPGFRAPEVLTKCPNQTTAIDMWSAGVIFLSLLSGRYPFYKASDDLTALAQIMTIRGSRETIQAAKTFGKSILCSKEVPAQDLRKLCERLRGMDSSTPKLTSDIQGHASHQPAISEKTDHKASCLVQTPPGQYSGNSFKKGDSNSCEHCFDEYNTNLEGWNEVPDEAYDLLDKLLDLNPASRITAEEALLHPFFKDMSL
cdc7/dbf4, sequence (Q9UBU7 whole entry partner): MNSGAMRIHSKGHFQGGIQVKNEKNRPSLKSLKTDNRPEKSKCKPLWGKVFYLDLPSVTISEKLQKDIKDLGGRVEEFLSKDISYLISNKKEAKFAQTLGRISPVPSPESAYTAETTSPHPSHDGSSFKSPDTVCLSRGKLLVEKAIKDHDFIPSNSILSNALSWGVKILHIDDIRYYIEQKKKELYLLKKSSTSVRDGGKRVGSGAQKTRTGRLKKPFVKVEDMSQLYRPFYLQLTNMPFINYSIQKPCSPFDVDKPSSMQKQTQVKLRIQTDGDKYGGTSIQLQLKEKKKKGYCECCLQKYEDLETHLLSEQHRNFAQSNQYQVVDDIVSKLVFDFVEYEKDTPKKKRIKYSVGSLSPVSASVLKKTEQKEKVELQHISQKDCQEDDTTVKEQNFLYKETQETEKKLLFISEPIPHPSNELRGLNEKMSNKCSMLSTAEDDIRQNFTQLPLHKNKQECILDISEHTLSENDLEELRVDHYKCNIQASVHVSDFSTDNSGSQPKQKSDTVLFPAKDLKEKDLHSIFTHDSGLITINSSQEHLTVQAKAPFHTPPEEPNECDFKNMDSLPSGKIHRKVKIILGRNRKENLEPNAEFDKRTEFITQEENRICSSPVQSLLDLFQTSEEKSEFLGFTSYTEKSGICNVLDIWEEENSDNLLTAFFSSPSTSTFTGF

Compound	inhibition at 0.93 µM (stock) [%]
CCc1ccc(-c2cc(-c3ccc4[nH]ncc4c3)nc(=O)[nH]2)cc1 [Example 6, 6-(4-ethylphenyl)-4-(1H-indazol-5-yl)pyrimidin-2(1H)-one]	83
O=c1nc(-c2ccc3[nH]ncc3c2)cc(-c2cccc(C(F)(F)F)c2)[nH]1 [Example 8, 4-(1H-indazol-5-yl)-6-[3-(trifluoromethyl)phenyl]pyrimidin-2(1H)-one]	55
O=c1nc(-c2ccc3[nH]ncc3c2)cc(-c2ccc(OCc3ccccc3)cc2)[nH]1 [Example 15, 6-[4-(benzyloxy)phenyl]-4-(1H-indazol-5-yl)pyrimidin-2(1H)-one]	58
O=c1nc(-c2ccc3[nH]ncc3c2)cc(-c2ccc(N3CCNCC3)cc2)[nH]1 [Example 16, 4-(1H-indazol-5-yl)-6-(4-piperazin-1-ylphenyl)pyrimidin-2(1H)-one]	94

Continued, values first:

inhibition at 0.93 µM (stock) [%]	Compound
82	O=c1nc(-c2ccc3[nH]ncc3c2)cc(-c2cccc(F)c2)[nH]1 [Example 2, 6-(3-fluorophenyl)-4-(1H-indazol-5-yl)pyrimidin-2(1H)-one]
81	COc1ccc(-c2cc(-c3ccc4[nH]ncc4c3)nc(=O)[nH]2)c(F)c1 [Example 3, 6-(2-fluoro-4-methoxyphenyl)-4-(1H-indazol-5-yl)pyrimidin-2(1H)-one]
94	COc1ccc(OC)c(-c2cc(-c3ccc4[nH]ncc4c3)nc(=O)[nH]2)c1 [Example 4, 6-(2,5-dimethoxyphenyl)-4-(1H-indazol-5-yl)pyrimidin-2(1H)-one]
75	COc1ccc(-c2cc(-c3ccc4[nH]ncc4c3)nc(=O)[nH]2)cc1F [Example 5, 6-(3-fluoro-4-methoxyphenyl)-4-(1H-indazol-5-yl)pyrimidin-2(1H)-one]
62	COc1ccc(-c2cc(-c3ccc4[nH]ncc4c3)nc(=O)[nH]2)cc1OC [Example 7, 6-(3,4-dimethoxyphenyl)-4-(1H-indazol-5-yl)pyrimidin-2(1H)-one]
87	O=c1nc(-c2ccc3[nH]ncc3c2)cc(-c2ccccc2F)[nH]1 [Example 9, 6-(2-fluorophenyl)-4-(1H-indazol-5-yl)pyrimidin-2(1H)-one]
98	O=c1nc(-c2ccc3[nH]ncc3c2)cc(-c2cccc(Cl)c2)[nH]1 [Example 10, 6-(3-chlorophenyl)-4-(1H-indazol-5-yl)pyrimidin-2(1H)-one]

Same assay, conditions: Test Concentration 1.39 μM; 0.5 μM ATP solution, MCM-2 substrate, 1 hr room temperature

inhibition at 1.39 µM (stock) [%]	Compound
98	O=c1nc(-c2ccc3[nH]ncc3c2)cc(-c2ccccc2)[nH]1 [Example 11, 4-(1H-indazol-5-yl)-6-phenylpyrimidin-2(1H)-one]
98	O=c1nc(-c2ccc3[nH]ncc3c2)cc(-c2cccc(OCc3ccccc3)c2)[nH]1 [Example 12, 6-[3-(benzyloxy)phenyl]-4-(1H-indazol-5-yl)pyrimidin-2(1H)-one]
92	O=c1nc(-c2ccc3[nH]ncc3c2)cc(-c2ccc(N3CCOCC3)cc2)[nH]1 [Example 13, 4-(1H-indazol-5-yl)-6-(4-morpholin-4-ylphenyl)pyrimidin-2(1H)-one]
84	O=c1nc(-c2ccc3[nH]ncc3c2)cc(-c2ccc(Oc3ccccc3)cc2)[nH]1 [Example 14, 4-(1H-indazol-5-yl)-6-(4-phenoxyphenyl)pyrimidin-2(1H)-one]
